According to US10035800B2 (AbbVie Inc., priority 2013, dated 2018):

What was measured:
[1] = target: T1, BRD4 (BDII_E352-M457) (Homo sapiens, UniProt O60885); test: TR-FRET bromodomain binding assay, second bromodomain of BRD4; settings: 30 nM probe
T1 construct: protocol; made in house
Method: (§1) Bromodomain Domain Binding Assay
(§2) A time-resolved fluorescence resonance energy transfer (TR-FRET) assay was used to determine the affinities of compounds of the Examples listed in Table 1 for each bromodomain of BRD4. His-tagged first (BD1: amino acids K57-E168) and second (BD2: amino acids […]) bromodomains of BRD4 were expressed and purified. An Alexa647-labeled BET-inhibitor was used as the fluorescent probe in the assay.
(§3) Compound dilution series were prepared in DMSO via an approximately 3-fold serial dilution from one of the following: […]
(§4) Assay method E: 0.47 mM to 7.8 nM […]
(§5) Assay method G: 0.047 mM to 0.78 nM
(§6) or 5-fold serial dilution from one of the following: […]
(§7) Assay method B: 2.5 mM-797 nM […]
(§8) For Assay methods B, E, and G: Compound dilutions were added directly into white, low-volume assay plates (Perkin Elmer Proxiplate 384 Plus#6008280) using a Labcyte Echo in conjunction with Labcyte Access and Thermo Multidrop CombinL robotics. Compounds were then suspended in eight microliters (μL) of assay buffer (20 mM Sodium Phosphate, pH 6.0, 50 mM NaCl, 1 mM Ethylenediaminetetraacetic acid disodium salt dihydrate, 0.01% Triton X-100, 1 mM DL-Dithiothreitol) containing His-tagged bromodomain, Europium-conjugated anti-His antibody (Invitrogen PV5596) and Alexa-647-conjugated probe.
(§9) The final concentration of 1× assay mixture for assay methods A, B, C, D, E, F, and G contains 2% DMSO, 8 nM His-tagged bromodomain, 1 nM Europium-conjugated anti-His-tag antibody and 100 nM or 30 nM probe (for BDI or BDII, respectively) and compound concentration in the range of: 50 μM-16 nM for method A, 49.02 μM-15.63 nM for method B, 25 μM-423 pM for method C, 10 μM-169 pM for method D, 9.19 μM-150 pM for method E, 5 μM-85 pM for method F, and 0.92 μM-15 pM for method G.
(§10) After a one-hour equilibration at room temperature, TR-FRET ratios were determined using an Envision multilabel plate reader (Ex 340, Em 495/520).
(§11) TR-FRET data were normalized to the means of 24 no-compound controls (“high”) and 8 controls containing 1 μM un-labeled probe (“low”). Percent inhibition was plotted as a function of compound concentration and the data were fit with the 4 parameter logistic equation to obtain IC50s. Inhibition constants (Ki) were calculated from the IC50s, probe Kd and probe concentration. Typical Z′ values were between 0.65 and 0.75. The minimum significant ratio was determined to evaluate assay reproducibility (Eastwood et al., (2006) J Biomol Screen, 11: 253-261). The MSR was determined to be 2.03 for BDI and 1.93 for BDII, and a moving MSR (last six run MSR overtime) for both BDI and BDII was typically <3.

[2] = target: T2, BRD4 (BDI_K57-E168) (Homo sapiens, UniProt O60885); test: TR-FRET bromodomain binding assay, first bromodomain of BRD4; settings: 100 nM probe
T2 construct: BD1: amino acids K57-E168; made in house
Method: as §1, §2, §3, §4, §5, §6, §7, §8, §9, §10, §11

[3] = TR-FRET assay protocol G (compound 0.92 μM-15 pM)
[4] = TR-FRET assay protocol E (compound 9.19 μM-150 pM)

Compound | Ki [1, 3] | Ki [2, 3] | Ki [1, 4] | Ki [2, 4]
2-(3-(10-methyl-7-((methylsulfonyl)methyl)-11-oxo-10,11-dihydro-1H-1,4,10-triazadibenzo[cd,f]azulen-4(3H)-yl)pyrrolidin-1-yl)acetic acid [Example 179] | 80.7 nM | 20.1 nM | – | –
4-(1-ethylpiperidin-3-yl)-10-methyl-7-((methylsulfonyl)methyl)-3,4-dihydro-1H-1,4,10-triazadibenzo[cd,f]azulen-11(10H)-one [Example 190] | 30.9 nM | 26.7 nM | – | –
4-((1-isopropylpiperidin-4-yl)methyl)-10-methyl-7-((methylsulfonyl)methyl)-3,4-dihydro-1H-1,4,10-triazadibenzo[cd,f]azulen-11(10H)-one [Example 183] | 15.5 nM | 3.84 nM | – | –
4-([1,1′-biphenyl]−4-ylsulfonyl)-10-methyl-7-((methylsulfonyl)methyl)-3,4-dihydro-1H-1,4,10-triazadibenzo[cd,f]azulen-11(10H)-one [Example 75] | > 408 nM | > 238 nM | – | –
7-fluoro-10-methyl-3,4-dihydro-1H-1,4,5,10-tetraazadibenzo[cd,f]azulen-11(10H)-one [Example 38] | > 408 nM | > 238 nM | – | –
10-methyl-7-((methylsulfonyl)methyl)-4-(1-((2-(trimethylsilyl)ethoxy)methyl)-1H-indazol-5-yl)-3,4-dihydro-1H-1,4,10-triazadibenzo[cd,f]azulen-11(10H)-one [Example 233] | 3.77 nM | 6.15 nM | – | –
Cn1cc2c3c(c[nH]c3c1=O)C(C(=O)NCCCc1ccccc1)N(c1ccc(F)cc1F)c1ccc(CS(C)(=O)=O)cc1-2 (racemic) [Example 160, 4-(2,4-difluorophenyl)-10-methyl-7-((methylsulfonyl)methyl)-11-oxo-N-(3-phenylpropyl)-3,4,10,11-tetrahydro-1H-1,4,10-triazadibenzo[cd,f]azulene-3-carboxamide] | 118 nM | 125 nM | – | –
Cn1cc2c3c(c[nH]c3c1=O)C(Cn1ccccc1=O)N(c1ccc(F)cc1F)c1ccc(CS(C)(=O)=O)cc1-2 (single isomer, unassigned) [Example 251] | 142 nM | > 238 nM | – | –
CCOC(=O)C1Nc2ncc(F)cc2-c2cn(C)c(=O)c3[nH]cc1c23 (stereo not drawn) [Example 39, ethyl 7-fluoro-10-methyl-11-oxo-3,4,10,11-tetrahydro-1H-1,4,5,10-tetraazadibenzo[cd,f]azulene-3-carboxylate] | > 408 nM | > 238 nM | – | –
CCOC(=O)C1c2c[nH]c3c(=O)n(C)cc(c23)-c2cc(C)cnc2N1c1ccc(F)cc1 (stereo not drawn) [Example 43, ethyl 4-(4-fluorophenyl)-7,10-dimethyl-11-oxo-3,4,10,11-tetrahydro-1H-1,4,5,10-tetraazadibenzo[cd,f]azulene-3-carboxylate] | 24.7 nM | 7.29 nM | – | –
Cn1cc2c3c(c[nH]c3c1=O)CN(/C=C(/C=C/c1ccccc1)c1ccccc1)c1c(F)cc(F)cc1-2 [Example 57, 4-((1Z,3E)-2,4-diphenylbuta-1,3-dien-1-yl)-5,7-difluoro-10-methyl-3,4-dihydro-1H-1,4,10-triazadibenzo[cd,f]azulen-11(10H)-one] | 90.6 nM | 64.7 nM | – | –

More lines, now with the values ahead:

Ki [1, 3] | Ki [2, 3] | Ki [1, 4] | Ki [2, 4] | Compound
– | – | 53.9 nM | 165 nM | COC(=O)CCC1Nc2ccc(CS(C)(=O)=O)cc2-c2cn(C)c(=O)c3[nH]cc1c23 (racemic) [Example 17, methyl 3-(10-methyl-7-((methylsulfonyl)methyl)-11-oxo-3,4,10,11-tetrahydro-1H-1,4,10-triazadibenzo[cd,f]azulen-3-yl)propanoate]
11 nM | 7.18 nM | – | – | Cn1cc2c3c(c[nH]c3c1=O)CN(CC1CCOC(C)(C)C1)c1ccc(CS(C)(=O)=O)cc1-2 (racemic) [Example 152, 4-((2,2-dimethyltetrahydro-2H-pyran-4-yl)methyl)-10-methyl-7-((methylsulfonyl)methyl)-3,4-dihydro-1H-1,4,10-triazadibenzo[cd,f]azulen-11(10H)-one]
9.18 nM | 3.72 nM | – | – | CCOCCC(C)N1Cc2c[nH]c3c(=O)n(C)cc(c23)-c2cc(CS(C)(=O)=O)ccc21 (racemic) [Example 153, 4-(4-ethoxybutan-2-yl)-10-methyl-7-((methylsulfonyl)methyl)-3,4-dihydro-1H-1,4,10-triazadibenzo[cd,f]azulen-11(10H)-one]
53.1 nM | 50.7 nM | – | – | Cn1cc2c3c(c[nH]c3c1=O)C(C(=O)NCCC#N)N(c1ccc(F)cc1F)c1ccc(CS(C)(=O)=O)cc1-2 (racemic) [Example 154, N-(2-cyanoethyl)-4-(2,4-difluorophenyl)-10-methyl-7-((methylsulfonyl)methyl)-11-oxo-3,4,10,11-tetrahydro-1H-1,4,10-triazadibenzo[cd,f]azulene-3-carboxamide]
73.3 nM | 60 nM | – | – | Cn1cc2c3c(c[nH]c3c1=O)C(C(=O)NC1(CO)CC1)N(c1ccc(F)cc1F)c1ccc(CS(C)(=O)=O)cc1-2 (racemic) [Example 166, 4-(2,4-difluorophenyl)-N-(1-(hydroxymethyl)cyclopropyl)-10-methyl-7-((methylsulfonyl)methyl)-11-oxo-3,4,10,11-tetrahydro-1H-1,4,10-triazadibenzo[cd,f]azulene-3-carboxamide]
76.3 nM | 69.2 nM | – | – | Cn1cc2c3c(c[nH]c3c1=O)C(C(=O)NC1(C)CC1)N(c1ccc(F)cc1F)c1ccc(CS(C)(=O)=O)cc1-2 (racemic) [Example 167, 4-(2,4-difluorophenyl)-10-methyl-N-(1-methylcyclopropyl)-7-((methylsulfonyl)methyl)-11-oxo-3,4,10,11-tetrahydro-1H-1,4,10-triazadibenzo[cd,f]azulene-3-carboxamide]
9.2 nM | 4.21 nM | – | – | COCCC(C)N1Cc2c[nH]c3c(=O)n(C)cc(c23)-c2cc(CS(C)(=O)=O)ccc21 (racemic) [Example 186, 4-(4-methoxybutan-2-yl)-10-methyl-7-((methylsulfonyl)methyl)-3,4-dihydro-1H-1,4,10-triazadibenzo[cd,f]azulen-11(10H)-one]
4.62 nM | 3.64 nM | – | – | CC(C1CCOCC1)N1Cc2c[nH]c3c(=O)n(C)cc(c23)-c2cc(CS(C)(=O)=O)ccc21 (racemic) [Example 188, 10-methyl-7-((methylsulfonyl)methyl)-4-(1-(tetrahydro-2H-pyran-4-yl)ethyl)-3,4-dihydro-1H-1,4,10-triazadibenzo[cd,f]azulen-11(10H)-one]
0.92 nM | 5.69 nM | – | – | COC(=O)CC[C@H]1c2c[nH]c3c(=O)n(C)cc(c23)-c2cc(CS(C)(=O)=O)ccc2N1c1ccc(F)cc1F (single isomer, unassigned) [Example 269]
– | – | 3090 nM | 2000 nM | Cn1cc2c3c(c[nH]c3c1=O)CNc1ccc(S(C)(=O)=O)cc1-2 [Example 4, 10-methyl-7-(methylsulfonyl)-3,4-dihydro-1H-1,4,10-triazadibenzo[cd,f]azulen-11(10H)-one]
– | – | 758 nM | 765 nM | Cn1cc2c3c(c[nH]c3c1=O)CNc1ccc(CS(C)(=O)=O)cc1-2 [Example 5, 10-methyl-7-((methylsulfonyl)methyl)-3,4-dihydro-1H-1,4,10-triazadibenzo[cd,f]azulen-11(10H)-one]
21.9 nM | 4.78 nM | – | – | CCCCC(CC)COC(=O)N1Cc2c[nH]c3c(=O)n(C)cc(c23)-c2cc(CS(C)(=O)=O)ccc21 (stereo not drawn) [Example 53, 2-ethylhexyl 10-methyl-7-((methylsulfonyl)methyl)-11-oxo-10,11-dihydro-1H-1,4,10-triazadibenzo[cd,f]azulene-4(3H)-carboxylate]
1.45 nM | 5.85 nM | – | – | CC(C)C(=O)N1Cc2c[nH]c3c(=O)n(C)cc(c23)-c2cc(CS(C)(=O)=O)ccc21 [Example 54, 4-isobutyryl-10-methyl-7-((methylsulfonyl)methyl)-3,4-dihydro-1H-1,4,10-triazadibenzo[cd,f]azulen-11(10H)-one]
